Results from ChEMBL document CHEMBL2311504, “Inhibition of the human deacylase Sirtuin 5 by the indole GW5074” (Bioorg Med Chem Lett, 2013).
Activity calls are given as the source filed them. No cut-off for these calls is given here.

Legend:
[1] = molecular target: T1, NAD-dependent protein deacylase sirtuin-5, mitochondrial (Homo sapiens, UniProt Q9NXA8); assay: Inhibition of human Sirt5 desuccinylation activity using SKEYFS-succinylLys-QK as substrate assessed as activity remaining at 100 µM measured for 20 mins by MS analysis
Target sequence in this assay (Q9NXA8 37-310 limits assumed): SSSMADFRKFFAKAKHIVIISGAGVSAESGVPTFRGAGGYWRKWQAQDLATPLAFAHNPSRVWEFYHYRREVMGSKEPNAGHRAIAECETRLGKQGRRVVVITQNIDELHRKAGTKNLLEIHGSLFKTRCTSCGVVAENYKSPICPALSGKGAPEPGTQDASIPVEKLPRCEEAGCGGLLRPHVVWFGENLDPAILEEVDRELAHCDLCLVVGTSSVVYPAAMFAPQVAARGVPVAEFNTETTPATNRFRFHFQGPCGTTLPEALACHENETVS

[2] = molecular target: T1, NAD-dependent protein deacylase sirtuin-5, mitochondrial; assay: Inhibition of human Sirt5 desuccinylation activity using SKEYFS-succinylLys-QK as substrate measured for 15 mins by MS analysis
Target sequence in this assay (Q9NXA8 whole entry): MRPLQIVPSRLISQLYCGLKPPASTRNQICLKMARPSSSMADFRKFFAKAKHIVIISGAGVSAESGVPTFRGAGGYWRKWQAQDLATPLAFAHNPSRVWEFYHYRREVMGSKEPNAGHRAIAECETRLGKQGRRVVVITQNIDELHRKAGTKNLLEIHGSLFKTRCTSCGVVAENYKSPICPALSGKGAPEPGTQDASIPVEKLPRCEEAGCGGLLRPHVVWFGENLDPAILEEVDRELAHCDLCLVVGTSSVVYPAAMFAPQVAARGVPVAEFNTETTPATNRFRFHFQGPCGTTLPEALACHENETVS

[3] = molecular target: T1, NAD-dependent protein deacylase sirtuin-5, mitochondrial; assay: Inhibition of human Sirt5 deacetylation activity using FKRGVL-acetylLys-EYGVKV as substrate assessed as activity remaining at 100 µM measured for 20 mins by MS analysis
Target sequence in this assay (Q9NXA8 37-310 limits assumed): as the sequence (Q9NXA8 37-310 limits assumed) above

[4] = molecular target: T1, NAD-dependent protein deacylase sirtuin-5, mitochondrial; assay: Inhibition of human Sirt5 deacetylation activity using FKRGVL-acetylLys-EYGVKV as substrate measured for 15 mins by MS analysis
Target sequence in this assay (Q9NXA8 whole entry): as the sequence (Q9NXA8 whole entry) above

[5] = molecular target: T1, NAD-dependent protein deacylase sirtuin-5, mitochondrial; assay: Selectivity ratio of IC50 for human Sirt5 deacetylation activity to IC50 for human Sirt5 desuccinylation activity
Target sequence in this assay (Q9NXA8 37-310 limits assumed): as the sequence (Q9NXA8 37-310 limits assumed) above

[6] = molecular target: T1, NAD-dependent protein deacylase sirtuin-5, mitochondrial; assay: Inhibition of human Sirt5 deacetylation activity using SKEYFS-acetylLys-QK as substrate measured for 15 mins by MS analysis
Target sequence in this assay (Q9NXA8 whole entry): as the sequence (Q9NXA8 whole entry) above

[7] = molecular target: T1, NAD-dependent protein deacylase sirtuin-5, mitochondrial; assay: Inhibition of human Sirt5 desuccinylation activity using SKEYFS-succinylLys-QK as substrate at 100 uM after 60 mins by glutamate dehydrpgenase-coupled assay
Target sequence in this assay (Q9NXA8 37-310 limits assumed): as the sequence (Q9NXA8 37-310 limits assumed) above

[8] = molecular target: T1, NAD-dependent protein deacylase sirtuin-5, mitochondrial; assay: Inhibition of human Sirt5 deacetylation activity using FKRGVL-acetylLys-EYGVKV as substrate at 100 uM after 60 mins by glutamate dehydrogenase-coupled assay
Target sequence in this assay (Q9NXA8 37-310 limits assumed): as above

inhibition [7]	inhibition [8]	also measured	SMILES
		Activity [1]: 15%; IC50 [2]: 19.5 µM; Activity [3]: 30%; IC50 [4]: 97.8 µM; Ratio IC50 [5]: 4; IC50 [6]: 200 µM	O=C1Nc2ccc(I)cc2C1=Cc1cc(Br)c(O)c(Br)c1 [GW305074X]
inactive	inactive		NC(=O)C1CCCc2c1[nH]c1ccc(Cl)cc21 (stereo not given)
20%	inactive		CC(C(=O)Nc1cccc(/N=C/c2c(O)ccc3ccccc23)c1)c1ccccc1 (stereo not given)
inactive	inactive		O=C(Nc1ccccc1-c1cn2c(CN3CCNCC3)csc2n1)c1cnc2ccccc2n1
inactive	inactive		O=C1Oc2ccc3cc(Br)ccc3c2CC1c1ccccc1 (stereo not given)
20%	Active		Cc1ccc(C(=O)Nc2ccc(S(=O)(=O)O)c3cc(S(=O)(=O)O)cc(S(=O)(=O)O)c23)cc1NC(=O)c1cccc(NC(=O)Nc2cccc(C(=O)Nc3cc(C(=O)Nc4ccc(S(=O)(=O)O)c5cc(S(=O)(=O)O)cc(S(=O)(=O)O)c45)ccc3C)c2)c1
inactive	inactive		N#C/C(=C\c1ccc(-c2cc(Cl)ccc2Cl)o1)C(=O)Nc1cccc2ncccc12
inactive	inactive		CC(NC(=O)c1ccccc1/N=C/c1c(O)ccc2ccccc12)c1ccccc1 (stereo not given)
